Test results published in ChEMBL document CHEMBL1201862, “PubChem BioAssay data set” (2004).
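Interpolation was linear, between the two tested concentrations surrounding the appropriate level; five concentrations were tested over 48 hours in 96-well plates. GI50: concentration for 50% inhibition of growth.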 The source made the active and inactive calls. No stated cut-off is given here; in the data, active = GI50 up to about 1.1 µM and inactive = higher.

Legend:
Assay in all cases: NCI tumour cell line growth inhibition, 48 h
NCI-H23 = tested on: NCI-H23
U-251 = tested on: U-251
A549 = tested on: A549
K562 = tested on: K562
SK-MEL-5 = tested on: SK-MEL-5
CCRF-CEM = tested on: CCRF-CEM
OVCAR-3 = tested on: OVCAR-3
SK-MEL-28 = tested on: SK-MEL-28
SNB-19 = tested on: SNB-19
SN12C = tested on: SN12C
NCI-H460 = tested on: NCI-H460
OVCAR-8 = tested on: OVCAR-8
MOLT-4 = tested on: MOLT-4
KM12 = tested on: KM12
SNB-75 = tested on: SNB-75
SW-620 = tested on: SW-620
HL-60 = tested on: HL-60
HT-29 = tested on: HT-29
SF-295 = tested on: SF-295
SF-268 = tested on: SF-268

| SMILES | GI50 (NCI-H23) | GI50 (U-251) | GI50 (A549) | GI50 (K562) | GI50 (SK-MEL-5) | GI50 (CCRF-CEM) | GI50 (OVCAR-3) | GI50 (SK-MEL-28) | GI50 (SNB-19) | GI50 (SN12C) | GI50 (NCI-H460) | GI50 (OVCAR-8) | GI50 (MOLT-4) | GI50 (KM12) | GI50 (SNB-75) | GI50 (SW-620) | GI50 (HL-60) | GI50 (HT-29) | GI50 (SF-295) | GI50 (SF-268) |
| --- | --- | --- | --- | --- | --- | --- | --- | --- | --- | --- | --- | --- | --- | --- | --- | --- | --- | --- | --- | --- |
| CC[C@@]1(O)C(=O)OCc2c1cc1n(c2=O)Cc2c-1nc1ccc(O)cc1c2CC[Si](C)(C)C | < 0.001 µM (active) | < 0.001 µM (active) | 0.00366 µM (active) | 0.00839 µM (active) | 0.00116 µM (active) | < 0.001 µM (active) | 0.0247 µM (active) | 0.0402 µM (active) | < 0.001 µM (active) | < 0.001 µM (active) | < 0.001 µM (active) | 0.00716 µM (active) | < 0.001 µM (active) | 0.0514 µM (active) | < 0.001 µM (active) | 0.00438 µM (active) | < 0.001 µM (active) | 0.012 µM (active) | 0.00131 µM (active) | < 0.001 µM (active) |
| c1ncc(C23C4C5C6C4C2C6C53)[nH]1 (centres undefined) | > 100 µM (inactive) | > 100 µM (inactive) | > 100 µM (inactive) | > 100 µM (inactive) | > 100 µM (inactive) | > 100 µM (inactive) | > 100 µM (inactive) | > 100 µM (inactive) | > 100 µM (inactive) | > 100 µM (inactive) | > 100 µM (inactive) | > 100 µM (inactive) | > 100 µM (inactive) | > 100 µM (inactive) | > 100 µM (inactive) | > 100 µM (inactive) | > 100 µM (inactive) | > 100 µM (inactive) | > 100 µM (inactive) | > 100 µM (inactive) |
| Cc1cc(S(=O)(=O)NC2=NCc3nc4ccccc4n32)c(S)cc1Cl | – | 33.5 µM (inactive) | 25.8 µM (inactive) | 42.9 µM (inactive) | 16.9 µM (inactive) | 31.6 µM (inactive) | 19.9 µM (inactive) | 30.5 µM (inactive) | 32.3 µM (inactive) | 23.5 µM (inactive) | 27.7 µM (inactive) | 28.1 µM (inactive) | 19.6 µM (inactive) | 21.2 µM (inactive) | 24.2 µM (inactive) | 47.6 µM (inactive) | 24.2 µM (inactive) | – | 19.9 µM (inactive) | 32 µM (inactive) |
| CCOC(=O)C1(C(=O)OCC)CC(=O)[C@@]2(C1)OCC[C@H]1OC(=O)C[C@H]12 | > 100 µM (inactive) | > 100 µM (inactive) | > 100 µM (inactive) | – | > 100 µM (inactive) | > 100 µM (inactive) | > 100 µM (inactive) | > 100 µM (inactive) | > 100 µM (inactive) | > 100 µM (inactive) | > 100 µM (inactive) | > 100 µM (inactive) | > 100 µM (inactive) | > 100 µM (inactive) | > 100 µM (inactive) | > 100 µM (inactive) | > 100 µM (inactive) | > 100 µM (inactive) | > 100 µM (inactive) | > 100 µM (inactive) |
| CCOC(=O)c1csc(NC(=O)CN2CCCC2)n1 | > 100 µM (inactive) | > 100 µM (inactive) | > 100 µM (inactive) | > 100 µM (inactive) | > 100 µM (inactive) | > 100 µM (inactive) | > 100 µM (inactive) | > 100 µM (inactive) | > 100 µM (inactive) | – | > 100 µM (inactive) | > 100 µM (inactive) | > 100 µM (inactive) | > 100 µM (inactive) | > 100 µM (inactive) | > 100 µM (inactive) | > 100 µM (inactive) | > 100 µM (inactive) | > 100 µM (inactive) | > 100 µM (inactive) |
| O=C1c2cc3c(cc2CC12Cc1ccc4c(c1C2=O)CCC4)CCCC3 (centres undefined) | > 100 µM (inactive) | > 100 µM (inactive) | > 100 µM (inactive) | > 100 µM (inactive) | > 100 µM (inactive) | > 100 µM (inactive) | > 100 µM (inactive) | > 100 µM (inactive) | > 100 µM (inactive) | – | > 100 µM (inactive) | > 100 µM (inactive) | > 100 µM (inactive) | – | 5.7 µM (inactive) | > 100 µM (inactive) | > 100 µM (inactive) | > 100 µM (inactive) | > 100 µM (inactive) | > 100 µM (inactive) |
| Cc1nc(N(CCO)CCO)c2sc(=S)n(-c3ccccc3)c2n1 | > 100 µM (inactive) | > 100 µM (inactive) | > 100 µM (inactive) | > 100 µM (inactive) | > 100 µM (inactive) | > 100 µM (inactive) | > 100 µM (inactive) | > 100 µM (inactive) | > 100 µM (inactive) | – | > 100 µM (inactive) | > 100 µM (inactive) | > 100 µM (inactive) | > 100 µM (inactive) | 10.8 µM (inactive) | > 100 µM (inactive) | > 100 µM (inactive) | > 100 µM (inactive) | > 100 µM (inactive) | > 100 µM (inactive) |
| CNC(=O)c1cccc2c(Nc3ccc(NS(C)(=O)=O)cc3OC)c3cccc(C)c3nc12 | 0.0418 µM (active) | 0.0251 µM (active) | 0.0151 µM (active) | 0.23 µM (active) | 0.131 µM (active) | 0.0133 µM (active) | 1.39 µM (inactive) | 2.21 µM (inactive) | 0.0555 µM (active) | 0.0326 µM (active) | < 0.01 µM (active) | 0.333 µM (active) | 0.0113 µM (active) | 0.479 µM (active) | 0.122 µM (active) | 0.169 µM (active) | 0.0131 µM (active) | 0.478 µM (active) | 0.0333 µM (active) | 0.114 µM (active) |
| Nc1ccc2c(c1)C1=NNC(=O)CC1C2 (centres undefined) | > 100 µM (inactive) | > 100 µM (inactive) | > 100 µM (inactive) | > 100 µM (inactive) | > 100 µM (inactive) | > 100 µM (inactive) | > 31.6 µM (inactive) | > 100 µM (inactive) | > 100 µM (inactive) | > 100 µM (inactive) | > 100 µM (inactive) | > 100 µM (inactive) | – | > 100 µM (inactive) | 78.5 µM (inactive) | > 100 µM (inactive) | > 100 µM (inactive) | > 100 µM (inactive) | > 100 µM (inactive) | > 100 µM (inactive) |
| O=C1CC2(CCC(O)(c3ccc4ccccc4c3)C(C(=O)c3ccc4ccccc4c3)C2)C(=O)c2ccccc2N1 (centres undefined) | > 100 µM (inactive) | > 100 µM (inactive) | > 100 µM (inactive) | > 100 µM (inactive) | 23 µM (inactive) | > 100 µM (inactive) | > 100 µM (inactive) | > 100 µM (inactive) | > 100 µM (inactive) | > 100 µM (inactive) | 29 µM (inactive) | > 100 µM (inactive) | 8.93 µM (inactive) | – | > 100 µM (inactive) | > 100 µM (inactive) | > 100 µM (inactive) | > 100 µM (inactive) | > 100 µM (inactive) | > 100 µM (inactive) |
| CN(C)c1cccc2c1C(=O)C=CC21CCc2ccc(N(C)C)c3c(N(C)C)ccc1c23 (centres undefined) | 16.9 µM (inactive) | – | 18.1 µM (inactive) | 3.96 µM (inactive) | 16.3 µM (inactive) | 6.41 µM (inactive) | 8.34 µM (inactive) | 15.4 µM (inactive) | 15.2 µM (inactive) | 12.2 µM (inactive) | 9.04 µM (inactive) | 13.7 µM (inactive) | 12 µM (inactive) | 14.8 µM (inactive) | 4.8 µM (inactive) | 16.1 µM (inactive) | 5.01 µM (inactive) | 13.1 µM (inactive) | 18.8 µM (inactive) | 14.4 µM (inactive) |
| C=C[C@@]12CCCCC1C/C(=C(/O)OC)C(=O)C2 (some centres undefined) | > 100 µM (inactive) | > 100 µM (inactive) | > 100 µM (inactive) | > 100 µM (inactive) | > 100 µM (inactive) | > 100 µM (inactive) | > 100 µM (inactive) | > 100 µM (inactive) | > 100 µM (inactive) | > 100 µM (inactive) | > 100 µM (inactive) | > 100 µM (inactive) | > 100 µM (inactive) | > 100 µM (inactive) | > 100 µM (inactive) | > 100 µM (inactive) | > 100 µM (inactive) | > 100 µM (inactive) | > 100 µM (inactive) | > 100 µM (inactive) |
| CN1CCc2c([nH]c3ccccc23)C1 | > 100 µM (inactive) | > 100 µM (inactive) | > 100 µM (inactive) | > 100 µM (inactive) | > 100 µM (inactive) | > 100 µM (inactive) | > 100 µM (inactive) | > 100 µM (inactive) | > 100 µM (inactive) | > 100 µM (inactive) | > 100 µM (inactive) | > 100 µM (inactive) | > 100 µM (inactive) | > 100 µM (inactive) | 19.7 µM (inactive) | > 100 µM (inactive) | > 100 µM (inactive) | > 100 µM (inactive) | > 100 µM (inactive) | > 100 µM (inactive) |
| COc1cccc(/C=C(/C(=O)O)c2cc(OC)c(OC)c(OC)c2)c1 | – | > 100 µM (inactive) | > 100 µM (inactive) | 51.8 µM (inactive) | > 100 µM (inactive) | 46.5 µM (inactive) | > 100 µM (inactive) | > 100 µM (inactive) | > 100 µM (inactive) | > 100 µM (inactive) | > 100 µM (inactive) | > 100 µM (inactive) | > 100 µM (inactive) | > 100 µM (inactive) | > 100 µM (inactive) | > 100 µM (inactive) | 66.5 µM (inactive) | > 100 µM (inactive) | > 100 µM (inactive) | > 100 µM (inactive) |
